# Data as given in patent publication US6737383B1, “Herbicidal oxadiazolidines” (priority 1999, dated 2004).
# Tests used:
# [1] = system: surinam grass; test: Test B pre/postemergence surinam grass; type: in vivo, Brachiaria decumbens
# Summary of the method: (§1)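 Response is a visual 0-to-10 score relative to untreated plants, where 0 means no effect and 10 means complete control, taken twelve to sixteen days after application. Treatments went onto soil at planting and onto foliage of 1- to 4-leaf plants, using a surfactant-containing non-phytotoxic solvent.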
# [2] = system: cocklebur; test: Test B pre/postemergence cocklebur; type: in vivo, Xanthium strumarium
# Summary of the method: as §1
# [3] = system: corn; test: Test B pre/postemergence corn; type: in vivo, Zea mays
# Summary of the method: as §1
# [4] = system: crabgrass; test: Test B pre/postemergence crabgrass; type: in vivo, Digitaria sanguinalis
# Summary of the method: as §1
# [5] = system: giant foxtail; test: Test B pre/postemergence giant foxtail; type: in vivo, Setaria faberii
# Summary of the method: as §1
# [6] = system: morningglory; test: Test B pre/postemergence morningglory; type: in vivo, Ipomoea hederacea
# Summary of the method: as §1
# [7] = system: pigweed; test: Test B pre/postemergence pigweed; type: in vivo, Amaranthus retroflexus
# Summary of the method: as §1
# [8] = system: rape; test: Test B pre/postemergence rape; type: in vivo, Brassica napus
# Summary of the method: as §1
# [9] = system: sugar beet; test: Test B pre/postemergence sugar beet; type: in vivo, Beta vulgaris
# Summary of the method: as §1
# [10] = system: wheat; test: Test B pre/postemergence wheat; type: in vivo, Triticum aestivum
# Summary of the method: as §1
# [11] = system: wild oat; test: Test B pre/postemergence wild oat; type: in vivo, Avena fatua
# Summary of the method: as §1
# [12] = system: purple nutsedge; test: Test B pre/postemergence purple nutsedge; type: in vivo, Cyperus rotundus
# Summary of the method: as §1
# [13] = system: rice; test: Test B flood test rice; type: in vivo, Oryza sativa
# Summary of the method: (§2)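 Plants were grown to the 2-leaf stage before treatment with test chemical, then held in a greenhouse for twelve to sixteen days. Injury was visually rated against untreated controls on a 0–10 scale, where 0 is no effect and 10 is complete control.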
# [14] = system: smallflower flatsedge; test: Test B flood test smallflower flatsedge; type: in vivo, Cyperus difformis
# Summary of the method: as §2
# [15] = system: duck salad; test: Test B flood test duck salad; type: in vivo, Heteranthera limosa
# Summary of the method: as §2
# [16] = system: bamyardgrass; test: Test B flood test barnyardgrass; type: in vivo, Echinochloa crus-galli
# Summary of the method: as §2
# [17] = Postemergence, Rate 62 g/ha, scale 0 to 10, 0 is no effect, 10 is complete control
# [18] = Postemergence, Rate 125 g/ha, scale of 0 to 10 where 0 is no effect and 10 is complete control
# [19] = Postemergence, Rate 250 g/ha, scale of 0 to 10, 0 is no effect, 10 is complete control
# [20] = Postemergence, Rate 500 g/ha, scale of 0 to 10 where 0 is no effect and 10 is complete control
# [21] = Preemergence, Rate 62 g/ha, scale 0 to 10 (0 no effect, 10 complete control)
# [22] = Preemergence, Rate 125 g/ha, scale of 0 to 10 where 0 is no effect and 10 is complete control
# [23] = Preemergence, Rate 250 g/ha, scale 0 to 10 (0 no effect, 10 complete control)
# [24] = Preemergence, Rate 500 g/ha, scale of 0 to 10 where 0 is no effect and 10 is complete control
# [25] = Rate 62 g/ha, flood test species, Pre-emergence, visual evaluation after twelve to sixteen days
# [26] = Rate 125 g/ha, under heading Pre-emergence, flood test species, visual evaluation after twelve to sixteen days
# [27] = Rate 250 g/ha, Pre-emergence (flood test species), scale 0 to 10, 0 is no effect, 10 is complete control
# [28] = Rate 500 g/ha, Pre-emergence section of Table B, 0 to 10 scale (0 no effect, 10 complete control)
smiles,measurement,setting,value
COCCn1c(=O)on(C(=O)N(c2ccccc2)C(C)C)c1=O [Compound 631],"Plant response rating, B. signalgrass",[1]; [17],1
same,"Plant response rating, B. signalgrass",[1]; [18],3
same,B. signalgrass plant response rating,[1]; [19],6
same,"Plant response rating, B. signalgrass",[1]; [20],8
same,B. signalgrass plant response rating,[1]; [21],6
same,B. signalgrass plant response rating,[1]; [22],7
same,"Plant response rating, B. signalgrass",[1]; [23],10
same,"Plant response rating, B. signalgrass",[1]; [24],10
same,"Plant response rating, Cocklebur",[2]; [17],0
same,"Plant response rating, Cocklebur",[2]; [18],0
same,Cocklebur plant response rating,[2]; [19],0
same,"Plant response rating, Cocklebur",[2]; [20],2
same,Cocklebur plant response rating,[2]; [21],0
same,Cocklebur plant response rating,[2]; [22],0
same,"Plant response rating, Cocklebur",[2]; [23],0
same,"Plant response rating, Cocklebur",[2]; [24],2
same,"Plant response rating, Corn",[3]; [17],5
same,"Plant response rating, Corn",[3]; [18],5
same,Corn plant response rating,[3]; [19],6
same,"Plant response rating, Corn",[3]; [20],8
same,Corn plant response rating,[3]; [21],5
same,Corn plant response rating,[3]; [22],6
same,"Plant response rating, Corn",[3]; [23],8
same,"Plant response rating, Corn",[3]; [24],9
same,"Plant response rating, Crabgrass",[4]; [17],8
same,"Plant response rating, Crabgrass",[4]; [18],9
same,Crabgrass plant response rating,[4]; [19],9
same,"Plant response rating, Crabgrass",[4]; [20],9
same,Crabgrass plant response rating,[4]; [21],7
same,Crabgrass plant response rating,[4]; [22],7
same,"Plant response rating, Crabgrass",[4]; [23],9
same,"Plant response rating, Crabgrass",[4]; [24],9
same,"Plant response rating, Giant foxtail",[5]; [17],8
same,"Plant response rating, Giant foxtail",[5]; [18],9
same,Giant foxtail plant response rating,[5]; [19],9
same,"Plant response rating, Giant foxtail",[5]; [20],9
same,Giant foxtail plant response rating,[5]; [21],9
same,Giant foxtail plant response rating,[5]; [22],9
same,"Plant response rating, Giant foxtail",[5]; [23],10
same,"Plant response rating, Giant foxtail",[5]; [24],10
same,"Plant response rating, Morningglory",[6]; [17],0
same,"Plant response rating, Morningglory",[6]; [18],4
same,Morningglory plant response rating,[6]; [19],4
same,"Plant response rating, Morningglory",[6]; [20],10
same,Morningglory plant response rating,[6]; [21],0
same,Morningglory plant response rating,[6]; [22],0
same,"Plant response rating, Morningglory",[6]; [23],4
same,"Plant response rating, Morningglory",[6]; [24],7
same,"Plant response rating, Redroot pigweed",[7]; [17],0
same,"Plant response rating, Redroot pigweed",[7]; [18],0
same,Redroot pigweed plant response rating,[7]; [21],7
same,Redroot pigweed plant response rating,[7]; [22],9
same,"Plant response rating, Redroot pigweed",[7]; [23],10
same,"Plant response rating, Redroot pigweed",[7]; [24],10
same,"Plant response rating, Rape",[8]; [17],0
same,"Plant response rating, Rape",[8]; [18],0
same,Rape plant response rating,[8]; [19],2
same,"Plant response rating, Rape",[8]; [20],2
same,Rape plant response rating,[8]; [21],0
same,Rape plant response rating,[8]; [22],0
same,"Plant response rating, Rape",[8]; [23],6
same,"Plant response rating, Rape",[8]; [24],8
same,"Plant response rating, Sugarbeets",[9]; [17],0
same,"Plant response rating, Sugarbeets",[9]; [18],0
same,Sugarbeets plant response rating,[9]; [19],0
same,Sugarbeets plant response rating,[9]; [21],0
same,Sugarbeets plant response rating,[9]; [22],3
same,"Plant response rating, Sugarbeets",[9]; [23],4
same,"Plant response rating, Sugarbeets",[9]; [24],8
same,"Plant response rating, Wheat",[10]; [17],0
same,"Plant response rating, Wheat",[10]; [18],2
same,Wheat plant response rating,[10]; [19],6
same,Wheat plant response rating,[10]; [21],0
same,Wheat plant response rating,[10]; [22],3
same,"Plant response rating, Wheat",[10]; [23],8
same,"Plant response rating, Wheat",[10]; [24],9
same,"Plant response rating, Wild oats",[11]; [17],0
same,"Plant response rating, Wild oats",[11]; [18],0
same,Wild oats plant response rating,[11]; [19],1
same,Wild oats plant response rating,[11]; [21],0
same,Wild oats plant response rating,[11]; [22],2
same,"Plant response rating, Wild oats",[11]; [23],8
same,"Plant response rating, Wild oats",[11]; [24],9
same,"Plant response rating, Nutsedge",[12]; [17],0
same,"Plant response rating, Nutsedge",[12]; [18],0
same,Nutsedge plant response rating,[12]; [19],0
same,Nutsedge plant response rating,[12]; [21],0
same,Nutsedge plant response rating,[12]; [22],4
same,"Plant response rating, Nutsedge",[12]; [23],4
same,"Plant response rating, Nutsedge",[12]; [24],8
same,"Plant response rating, Rice (0 to 10 scale, 0 is no effect, 10 is complete control)",[13]; [25],0
same,"Rice plant response rating (0 to 10 scale, 0 is no effect, 10 is complete control)",[13]; [26],0
same,Rice plant response rating,[13]; [27],0
same,Rice plant response rating,[13]; [28],0
same,"Plant response rating, S. Flatsedge (0 to 10 scale, 0 is no effect, 10 is complete control)",[14]; [25],0
same,"S. Flatsedge plant response rating (0 to 10 scale, 0 is no effect, 10 is complete control)",[14]; [26],0
same,S. Flatsedge plant response rating,[14]; [27],0
same,S. Flatsedge plant response rating,[14]; [28],0
same,"Plant response rating, Ducksalad (0 to 10 scale, 0 is no effect, 10 is complete control)",[15]; [25],0
same,"Ducksalad plant response rating (0 to 10 scale, 0 is no effect, 10 is complete control)",[15]; [26],0
same,Ducksalad plant response rating,[15]; [27],0
same,Ducksalad plant response rating,[15]; [28],0
same,"Plant response rating, Barnyardgrass (0 to 10 scale, 0 is no effect, 10 is complete control)",[16]; [25],0
same,"Barnyardgrass plant response rating (0 to 10 scale, 0 is no effect, 10 is complete control)",[16]; [26],1
same,Barnyardgrass plant response rating,[16]; [27],4
same,Barnyardgrass plant response rating,[16]; [28],4
